Test results from patent US20250161241A1, “CYSTEAMIDES, THERAPEUTIC COMPOSITIONS THEREOF, AND RELATED METHODS” (Boyce Thompson Institute for Plant Research, Inc., priority 2022, published 2025).

Experiments:
[1] = system: brain-resident Tregs; assay: brain-resident Treg levels in mice after oral gavage (flow cytometry, i.v. CD45 labeling); format: in vivo, mouse; conditions: SPF mice, oral gavage 50 mg/kg/day, 14 days, vs vehicle; brain tissue; FIG. 66 top row
Description: (§1) Butyrate-MCY (dissolved in water) was delivered by oral gavage at a rate of 50 mg/kg body weight per day in a volume of 100 μL for two weeks.
For isolation of brain leukocyte populations, mice were euthanized with CO2 and perfused through the left ventricle with 20 mL PBS. The whole brain was removed and placed in 2.5 mL digestion buffer (PBS, 5% FCS, 1 mM HEPES) before being finely chopped. Collagenase D (Roche, 400 U) was added to the mixture, which was then incubated at 37° C. for 30 min before adding 50 μL 0.5 M EDTA, followed by a 5-min incubation. […]
(§2) All antibodies above were used at 1:200 dilutions, except FoxP3 were used at 1:100 dilutions. Stained cells were analyzed on a 5 laser, 18 color custom-configuration BD LSRFortessa (BD). Data were collected using BD FACSDiva version 9.0 and analyzed using FlowJo (version 10.7.1, Tree Star).
For functional evaluation, the previously unreported MCY conjugates of butyrate were prioritized, given that their microbiota-dependent production is conserved in humans and considering that the corresponding parent metabolite, butyrate, serves important roles in immune homeostasis. […] SPF mice were supplemented via oral gavage with butyrate-MCY (50 mg/kg/day, 100 μL/day, 14 days), which was identified in the brain and serum metabolomes and the levels of brain-resident Tregs was measured. […]

[2] = system: gut Tregs (colon tissue); assay: colon (gut) Treg levels in mice after oral gavage (flow cytometry); format: in vivo, mouse; conditions: SPF mice, oral gavage 50 mg/kg/day, 14 days, vs vehicle, FIG. 66 bottom row
Description: as §1
Mouse colons were removed, cleaned of attached fat tissues, and washed in ice-cold PBS (Sigma-Aldrich). They were then opened longitudinally and washed again in ice-cold PBS. Dissociation of epithelial cells was performed by shaking at 37° C. in HBSS (Sigma-Aldrich) containing 10 mM HEPES, 10 mM EDTA (Thermo Fisher Scientific) and 2 mM dithiothreitol (DTT) two times for 15 min each. After each step, samples were vortexed, and the supernatant containing the epithelial fraction was removed. […]
as §2
For functional evaluation, the previously unreported MCY conjugates of butyrate were prioritized, given that their microbiota-dependent production is conserved in humans and considering that the corresponding parent metabolite, butyrate, serves important roles in immune homeostasis. […] FIG. 66 (top row) provides representative flow cytometry plots of Tregs and quantification of Tregs as percentage of all CD4+ T cells in brain tissue from vehicle or butyrate-MCY treated mice. […]

**Q.** What does the source list for `CCCC(=O)NCCSC` [butyrate-MCY]?
**A.** percentage of brain-resident Tregs amongst CD4+ T cells [1]: significantly decreased; percentage of gut Tregs amongst CD4+ T cells [2]: significantly decreased
